Assay: xn = mol fraction of the nth substance listed
Settings: 100 kPa, Liquid; for viscosity: Capillary tube (Ostwald / Ubbelohde) method; for speed of sound: Frequency=3 MHz, Single path-length method; for mass density: Vibrating tube method

CC[S+](CC)CC.O=S(=O)([N-]S(=O)(=O)C(F)(F)F)C(F)(F)F [triethylsulfonium bis((trifluoromethyl)sulfonyl)imide] + CCCO
Settings | mass density [kg/m3] | speed of sound [m/s] | viscosity [mPa·s]
293.15 K, x1 = 0.04926 | 910 | 1205.5 | 2.874
293.15 K, x1 = 0.1003 | 996 | 1194.3 | 4.059
293.15 K, x1 = 0.1993 | 1120 | 1195 | 5.998
293.15 K, x1 = 0.3008 | 1209 | 1203.1 | 7.862
293.15 K, x1 = 0.3991 | 1273 | 1212.3 | 10.68
293.15 K, x1 = 0.5023 | 1324 | 1222.2 | 12.28
293.15 K, x1 = 0.5987 | 1363 | 1228.5 | 15.93
293.15 K, x1 = 0.6987 | 1395 | 1235.2 | 19.92
293.15 K, x1 = 0.7947 | 1421 | 1240.6 | 24.95
293.15 K, x1 = 0.903 | 1446 | 1245.8 | 31.64
293.15 K, x1 = 1 | 1465 | 1252.9 | 39.64
298.15 K, x1 = 0.04926 | 906 | 1190.3 | 2.515
298.15 K, x1 = 0.1003 | 992 | 1179.9 | 3.438
298.15 K, x1 = 0.1993 | 1115 | 1181.8 | 5.082
298.15 K, x1 = 0.3008 | 1204 | 1190.5 | 6.704
298.15 K, x1 = 0.3991 | 1268 | 1200.2 | 9.087
298.15 K, x1 = 0.5023 | 1319 | 1210.3 | 10.45
298.15 K, x1 = 0.5987 | 1358 | 1217 | 13.49
298.15 K, x1 = 0.6987 | 1390 | 1223.8 | 16.79
298.15 K, x1 = 0.7947 | 1416 | 1229.4 | 20.88
298.15 K, x1 = 0.903 | 1441 | 1234.8 | 26.25
298.15 K, x1 = 1 | 1460 | 1242.5 | 32.43
303.15 K, x1 = 0.04926 | 901 | 1174.8 | 2.216
303.15 K, x1 = 0.1003 | 987 | 1165.6 | 2.978
303.15 K, x1 = 0.1993 | 1111 | 1168.7 | 4.379
303.15 K, x1 = 0.3008 | 1199 | 1178.1 | 5.78
303.15 K, x1 = 0.3991 | 1263 | 1188.2 | 7.814
303.15 K, x1 = 0.5023 | 1314 | 1198.7 | 8.985
303.15 K, x1 = 0.5987 | 1353 | 1205.5 | 11.56
303.15 K, x1 = 0.6987 | 1386 | 1212.6 | 14.33
303.15 K, x1 = 0.7947 | 1411 | 1218.3 | 17.71
303.15 K, x1 = 0.903 | 1436 | 1223.9 | 22.1
303.15 K, x1 = 1 | 1455 | 1232.4 | 26.92
308.15 K, x1 = 0.04926 | 897 | 1159.5 | 1.962
308.15 K, x1 = 0.1003 | 983 | 1151.3 | 2.609
308.15 K, x1 = 0.1993 | 1106 | 1155.7 | 3.816
308.15 K, x1 = 0.3008 | 1194 | 1165.8 | 5.034
308.15 K, x1 = 0.3991 | 1258 | 1176.3 | 6.787
308.15 K, x1 = 0.5023 | 1310 | 1187.1 | 7.806
308.15 K, x1 = 0.5987 | 1348 | 1194.2 | 10.01
308.15 K, x1 = 0.6987 | 1381 | 1201.5 | 12.35
308.15 K, x1 = 0.7947 | 1407 | 1207.4 | 15.19
308.15 K, x1 = 0.903 | 1431 | 1213.1 | 18.81
308.15 K, x1 = 1 | 1450 | 1222.4 | 22.64
313.15 K, x1 = 0.04926 | 893 | 1144.2 | 1.747
313.15 K, x1 = 0.1003 | 978 | 1137.2 | 2.304
313.15 K, x1 = 0.1993 | 1101 | 1142.8 | 3.354
313.15 K, x1 = 0.3008 | 1190 | 1153.5 | 4.421
313.15 K, x1 = 0.3991 | 1253 | 1164.5 | 5.945
313.15 K, x1 = 0.5023 | 1305 | 1175.6 | 6.842
313.15 K, x1 = 0.5987 | 1343 | 1183 | 8.742
313.15 K, x1 = 0.6987 | 1376 | 1190.5 | 10.75
313.15 K, x1 = 0.7947 | 1402 | 1196.6 | 13.15
313.15 K, x1 = 0.903 | 1426 | 1202.5 | 16.18
313.15 K, x1 = 1 | 1446 | 1212.7 | 19.24
318.15 K, x1 = 0.04926 | 888 | 1129 | 1.563
318.15 K, x1 = 0.1003 | 974 | 1123.1 | 2.049
318.15 K, x1 = 0.1993 | 1097 | 1129.9 | 2.972
318.15 K, x1 = 0.3008 | 1185 | 1141.3 | 3.913
318.15 K, x1 = 0.3991 | 1249 | 1152.7 | 5.25
318.15 K, x1 = 0.5023 | 1300 | 1164.2 | 6.044
318.15 K, x1 = 0.5987 | 1338 | 1171.9 | 7.698
318.15 K, x1 = 0.6987 | 1371 | 1179.6 | 9.441
318.15 K, x1 = 0.7947 | 1397 | 1185.8 | 11.49
318.15 K, x1 = 0.903 | 1422 | 1191.9 | 14.06
318.15 K, x1 = 1 | 1441 | 1203.1 | 16.53
323.15 K, x1 = 0.04926 | 884 | 1113.8 | 1.404
323.15 K, x1 = 0.1003 | 969 | 1109.1 | 1.833
323.15 K, x1 = 0.1993 | 1092 | 1117.1 | 2.651
323.15 K, x1 = 0.3008 | 1180 | 1129.2 | –
323.15 K, x1 = 0.3991 | 1244 | 1141.1 | 4.67
323.15 K, x1 = 0.5023 | 1295 | 1152.9 | 5.379
323.15 K, x1 = 0.5987 | 1334 | 1160.8 | 6.831
323.15 K, x1 = 0.6987 | 1366 | 1168.8 | 8.347
323.15 K, x1 = 0.7947 | 1392 | 1175.2 | 10.12
323.15 K, x1 = 0.903 | 1417 | 1181.5 | 12.31
323.15 K, x1 = 1 | 1436 | 1193.7 | 14.31
328.15 K, x1 = 0.04926 | 879 | 1098.6 | 1.268
328.15 K, x1 = 0.1003 | 965 | 1095.1 | 1.648
328.15 K, x1 = 0.1993 | 1087 | 1104.3 | 2.38
328.15 K, x1 = 0.3008 | 1175 | 1117.2 | 3.13
328.15 K, x1 = 0.3991 | 1239 | 1129.5 | 4.187
328.15 K, x1 = 0.5023 | 1290 | 1141.6 | 4.822
328.15 K, x1 = 0.5987 | 1329 | 1149.9 | 6.099
328.15 K, x1 = 0.6987 | 1362 | 1158.1 | 7.438
328.15 K, x1 = 0.7947 | 1388 | 1164.7 | 8.976
328.15 K, x1 = 0.903 | 1412 | 1171.2 | 10.86
328.15 K, x1 = 1 | 1431 | 1184.7 | 12.5
333.15 K, x1 = 0.04926 | 875 | 1083.4 | 1.149
333.15 K, x1 = 0.1003 | 960 | 1081.1 | 1.489
333.15 K, x1 = 0.1993 | 1082 | 1091.5 | 2.148
333.15 K, x1 = 0.3008 | 1170 | 1105.2 | 2.825
333.15 K, x1 = 0.3991 | 1234 | 1118 | 3.775
333.15 K, x1 = 0.5023 | 1285 | 1130.5 | 4.346
333.15 K, x1 = 0.5987 | 1324 | 1139.1 | 5.483
333.15 K, x1 = 0.6987 | 1357 | 1147.5 | 6.667
333.15 K, x1 = 0.7947 | 1383 | 1154.3 | 8.024
333.15 K, x1 = 0.903 | 1407 | 1161 | 9.653
333.15 K, x1 = 1 | 1427 | 1175.9 | 10.99
338.15 K, x1 = 0.04926 | 870 | 1068.2 | 1.044
338.15 K, x1 = 0.1003 | 955 | 1067.1 | 1.352
338.15 K, x1 = 0.1993 | 1078 | 1078.7 | 1.95
338.15 K, x1 = 0.3008 | 1166 | 1093.3 | 2.563
338.15 K, x1 = 0.3991 | 1229 | 1106.6 | 3.422
338.15 K, x1 = 0.5023 | 1281 | 1119.3 | 3.941
338.15 K, x1 = 0.5987 | 1319 | 1128.3 | 4.956
338.15 K, x1 = 0.6987 | 1352 | 1137 | 6.007
338.15 K, x1 = 0.7947 | 1378 | 1144 | 7.206
338.15 K, x1 = 0.903 | 1403 | 1150.8 | 8.628
338.15 K, x1 = 1 | 1422 | 1166.8 | 9.726
343.15 K, x1 = 0.04926 | 866 | 1052.9 | 0.953
343.15 K, x1 = 0.1003 | 951 | 1053.3 | 1.232
343.15 K, x1 = 0.1993 | 1073 | 1066.2 | 1.778
343.15 K, x1 = 0.3008 | 1161 | 1081.5 | 2.339
343.15 K, x1 = 0.3991 | 1224 | 1095.4 | 3.123
343.15 K, x1 = 0.5023 | 1276 | 1108.3 | 3.594
343.15 K, x1 = 0.5987 | 1315 | 1117.8 | 4.507
343.15 K, x1 = 0.6987 | 1347 | 1126.8 | 5.444
343.15 K, x1 = 0.7947 | 1373 | 1134 | 6.506
343.15 K, x1 = 0.903 | 1398 | 1141 | 7.766
343.15 K, x1 = 1 | 1417 | 1157.6 | 8.659

From the NIST ThermoML archive (doi:10.1021/acs.jced.8b00537)
